One assay deals with γ-secretase. Description: CTF99 level in APP-transfected CAD cells with γ-secretase inhibitor (Western blot). Format: cell-based, mouse. The note with it: in both APPIDF and APPSW cells. As for the experimental part: Cell culture, transfection and analysis of APP processing products. Mouse neuronal CAD cell line was cultured with DMEM/F12 media (Invitrogen, Carlsbad, Calif.) containing 10% fetal bovine serum and 2% penicillin/streptomycin. Transient trransfections were performed using Fugene HD (Roche, Sweden) according to the manufacture's instruction. 24 hours later after transfection, total cell lysate and cell media were collected and 1% of Protease inhibitor was added (Calbiochem, Gibbstown, N.J.). Aβ level in media was assayed by Aβ [1-40] Human Fluorimetric ELISA Kit (invitrogen, Carlsbad, Calif.). Conditioned media or total cell lysate from the transiently transfected cells were subjected to 10% or 10-20% tricine SDS-PAGE gels (Invitrogen, Carlsbad, Calif.), and transferred to PVDF membranes. The blots were probed with antibodies. The western blot analysis was used for determining the levels of full-length APP, APP's proteolytic products and β-actin.
APPIDF and APPSW cells were also similar in cellular processing characteristics. […] CTF99 is increased in both APPIDF and APPSW cells when γ-secretase inhibitor DAPT slowed its degradation (FIG. 4A, second line, right lanes). As expected, APP ectodomain fragment from α-secretase cleavage, sAPPα, decreased in both APPIDF and APPSW cells as compared to that in APPWT cells (FIG. 4A, fourth panel).
(In western blotting, separated proteins are transferred to a membrane and probed.)

A further assay deals with T1, human memapsin 2 (Homo sapiens, UniProt P56817).
T1 construct: The ecto-domain of human memapsin 2 was expressed and purified as described previously (Hong et al., 2000); made in house
T1 sequence (P56817 46-457 limits assumed): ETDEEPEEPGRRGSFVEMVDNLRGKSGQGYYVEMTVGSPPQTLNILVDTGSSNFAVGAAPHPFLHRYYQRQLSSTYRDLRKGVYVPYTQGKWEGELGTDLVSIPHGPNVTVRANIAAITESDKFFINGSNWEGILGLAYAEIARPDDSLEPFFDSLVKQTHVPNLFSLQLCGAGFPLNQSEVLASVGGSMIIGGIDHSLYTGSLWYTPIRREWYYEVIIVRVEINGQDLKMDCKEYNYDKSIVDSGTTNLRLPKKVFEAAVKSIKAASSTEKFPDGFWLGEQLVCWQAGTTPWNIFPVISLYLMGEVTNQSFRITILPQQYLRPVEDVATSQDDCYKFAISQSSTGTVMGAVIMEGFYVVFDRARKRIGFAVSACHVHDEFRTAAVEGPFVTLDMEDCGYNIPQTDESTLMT
Description: Determination of kcat/KM of memapsin 2 substrate peptides (steady-state kinetics and competitive hydrolysis, ESI LC/MS). To be noted: steady-state kinetics, substrate 5 μM to 150 μM, pH 4.0, 37° C. Format: biochemical. The text has this:
Materials. α-cyan-4 hydroxycinnamic acid, D0- and D6-form acetic anhydride , N-hydroxysuccinimide were purchased from Sigma. Peptide (Des-Ser1)-Cerebellin was purchased from Bachem (Bubendorf, Switzerland). All peptides derived from memapsin 2 potential substrates were synthesized by GenScript (Piscataway, N.J.). The ecto-domain of human memapsin 2 was expressed and purified as described previously (Hong et al., 2000). Monoclonal anti-memapsin 2 antibody 3E7 was purchased from Santa Cruz Biotechnology Inc (Santa Cruz, Calif.). Monoclonal anti-APP antibody 1560, MAB348 and polyclonal anti-APP antibody 5352 were purchased from Millipore (Billerica, Mass.). Monoclonal anti-actin antibody was purchased from Abcam (Cambridge, Mass.).
Determination of kcat/KM of different memapsin 2's substrates. […] Initial velocity was determined by ESI LC/MS, in which the product an substrate peak areas were quantitated. The kinetic parameters, kcat and KM were determined from non-linear regression using Grafit software (Surrey, UK). […] Relative kcat/KM of different substrates were determined by comparing the initial hydrolysis rates to that of VGSC beta 2.
Comparison of the kinetics for peptides derived from memapsin 2 protein substrates. […] The relative kcat/KM values of other twelve peptides were determined from their relative pseudo-first-order hydrolytic rates. […]

Peptide text beside a SMILES is read from it.

Our source for the CTF99 level and Km values is patent publication US20120100564A1, “Prediction of Memapsin 2 Cleavage Sites” (priority 2010, published 2012).

As to `C[C@H](NC(=O)Cc1cc(F)cc(F)c1)C(=O)N[C@H](C(=O)OC(C)(C)C)c1ccccc1` [DAPT], the CTF99 level result with γ-secretase is listed as “increased”. As a reminder, the Km is the concentration of substrate that gives half-maximal velocity. Regarding `CC[C@H](C)[C@H](NC(=O)[C@H](CCCCN)NC(=O)CNC(=O)[C@H](Cc1c[nH]cn1)NC(=O)CNC(=O)[C@@H](N)CCCNC(=N)N)C(=O)N[C@@H](Cc1ccc(O)cc1)C(=O)N[C@@H](CC(C)C)C(=O)N[C@@H](CCC(N)=O)C(=O)N[C@H](C(=O)N[C@@H](CC(C)C)C(=O)N[C@@H](CC(C)C)C(=O)O)C(C)C` [VGSC-β2] (H-RGHGKIYLQVLL-OH), at human memapsin 2, the Km stood at 36.4 µM.
